Assay results published in patent US10925876B2, “Methods for using triazolo-pyrazinyl soluble guanylate cyclase activators in fibrotic disorders” (Merck Sharp & Dohme Corp., priority 2016, dated 2021).

Target: T1, sGC α1/β1 heterodimer (Homo sapiens, UniProt Q02108+Q02153)
T1 construct: expressed in transfected cells
T1 sequence (Q02108 1-690): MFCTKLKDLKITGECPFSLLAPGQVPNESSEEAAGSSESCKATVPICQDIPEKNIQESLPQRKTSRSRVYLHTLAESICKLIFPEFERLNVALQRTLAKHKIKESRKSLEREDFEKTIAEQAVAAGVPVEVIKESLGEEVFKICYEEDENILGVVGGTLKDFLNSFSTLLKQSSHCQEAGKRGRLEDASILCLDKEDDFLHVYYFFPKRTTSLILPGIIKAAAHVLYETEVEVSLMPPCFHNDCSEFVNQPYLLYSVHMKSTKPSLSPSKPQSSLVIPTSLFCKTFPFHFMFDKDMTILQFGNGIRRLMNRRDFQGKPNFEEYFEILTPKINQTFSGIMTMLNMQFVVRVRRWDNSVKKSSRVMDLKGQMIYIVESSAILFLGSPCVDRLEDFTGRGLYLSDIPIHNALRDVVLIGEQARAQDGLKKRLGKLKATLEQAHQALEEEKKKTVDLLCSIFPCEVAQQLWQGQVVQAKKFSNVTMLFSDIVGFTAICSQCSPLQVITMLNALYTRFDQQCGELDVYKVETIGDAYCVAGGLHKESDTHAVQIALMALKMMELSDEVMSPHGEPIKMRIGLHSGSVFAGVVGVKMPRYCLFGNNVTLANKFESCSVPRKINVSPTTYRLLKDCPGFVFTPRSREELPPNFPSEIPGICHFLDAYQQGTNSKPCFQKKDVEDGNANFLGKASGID
T1 sequence (Q02153 1-619): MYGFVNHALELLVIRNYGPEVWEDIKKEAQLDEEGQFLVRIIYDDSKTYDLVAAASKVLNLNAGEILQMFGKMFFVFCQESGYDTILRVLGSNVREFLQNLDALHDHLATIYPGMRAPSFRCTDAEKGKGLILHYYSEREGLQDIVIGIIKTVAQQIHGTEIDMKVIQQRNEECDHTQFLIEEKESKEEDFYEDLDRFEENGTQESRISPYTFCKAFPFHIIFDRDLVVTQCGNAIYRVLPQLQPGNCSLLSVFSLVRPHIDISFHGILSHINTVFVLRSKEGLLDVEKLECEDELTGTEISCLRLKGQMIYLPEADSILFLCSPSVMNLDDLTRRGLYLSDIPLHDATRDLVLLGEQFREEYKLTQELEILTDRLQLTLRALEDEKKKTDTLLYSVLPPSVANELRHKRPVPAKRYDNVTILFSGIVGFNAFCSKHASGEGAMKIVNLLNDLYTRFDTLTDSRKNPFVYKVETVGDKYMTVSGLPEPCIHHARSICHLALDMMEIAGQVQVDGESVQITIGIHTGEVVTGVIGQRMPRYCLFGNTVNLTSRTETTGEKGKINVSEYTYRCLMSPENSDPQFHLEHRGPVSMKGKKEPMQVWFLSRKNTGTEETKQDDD
Assay: Cell-Based sGC Functional Assay (CASA Assay), cGMP generation in CHO-K1/sGC cells;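 further: reference Compound A is a published heme-dependent sGC activator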
Conditions: maximum cGMP production of Compound A set to 100% activation, read-out: % Act. (percent activation relative to Compound A)
Method in brief: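 CHO-K1 cells stably expressing human sGC α1/β1, 4×10^5/mL in EBSS with 5 mM MgCl2, 10 mM HEPES, 0.05% BSA, 0.5 mM IBMX, 2.5% DMSO; compounds 1 h at 37 °C ± 1 μM DETA-NO. cGMP by HTRF, expressed as % of reference Compound A maximum; IP and max fold induction from 4P fit.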

Row | Structure (SMILES) | Emax
1 | CCCCc1nc(-c2nc(O)c3c(n2)NC(=O)C3(C)c2ccc(C)cn2)cn2ncnc12 (stereo not shown) [Example 161B, 2-(8-butyl-[1,2,4]triazolo[1,5-a]pyrazin-6-yl)-4-hydroxy-5-methyl-5-(5-methylpyridin-2-yl)-5H-pyrrolo[2,3-d]pyrimidin-6(7H)-one] | 95%
2 | CC1(c2ccc(Cl)c(F)c2)C(=O)Nc2nc(-c3cn4ncnc4c(CCCC(F)(F)F)n3)nc(N)c21 (stereo not shown) [Example 28B, 4-amino-5-(4-chloro-3-fluorophenyl)-5-methyl-2-(8-(4,4,4-trifluorobutyl)-[1,2,4]triazolo[1,5-a]pyrazin-6-yl)-5H-pyrrolo[2,3-d]pyrimidin-6(7H)-one] | 171%
3 | CCCCc1nc(-c2nc(N)c3c(n2)NC(=O)C3(C)c2nnc(C(F)(F)F)o2)cn2ncnc12 (stereo not shown) [Example 102A, 4-amino-2-(8-butyl-[1,2,4]triazolo[1,5-a]pyrazin-6-yl)-5-methyl-5-(5-(trifluoromethyl)-1,3,4-oxadiazol-2-yl)-5H-pyrrolo[2,3-d]pyrimidin-6(7H)-one] | 132%
4 | CCCCc1nc(-c2nc(O)c3c(n2)NC(=O)C3(C)c2ccc(C(F)(F)F)cn2)cn2ncnc12 (stereo not shown) [Example 159B, 2-(8-butyl-[1,2,4]triazolo[1,5-a]pyrazin-6-yl)-4-hydroxy-5-methyl-5-(5-(trifluoromethyl)pyridin-2-yl)-5H-pyrrolo[2,3-d]pyrimidin-6(7H)-one] | 73%
5 | CC1(c2nnc(C(F)(F)F)o2)C(=O)Nc2nc(-c3cn4ncnc4c(CCCC(F)(F)F)n3)nc(N)c21 (stereo not shown) [Example 101A, 4-amino-5-methyl-2-(8-(4,4,4-trifluorobutyl)-[1,2,4]triazolo[1,5-a]pyrazin-6-yl)-5-(5-(trifluoromethyl)-1,3,4-oxadiazol-2-yl)-5H-pyrrolo[2,3-d]pyrimidin-6(7H)-one] | 154%
6 | CC1(c2ccc(C#N)cn2)C(=O)Nc2nc(-c3cn4ncnc4c(CCCC(F)(F)F)n3)nc(N)c21 (stereo not shown) [Example 48A, 6-(4-amino-5-methyl-6-oxo-2-(8-(4,4,4-trifluorobutyl)-[1,2,4]triazolo[1,5-a]pyrazin-6-yl)-6,7-dihydro-5H-pyrrolo[2,3-d]pyrimidin-5-yl)nicotinonitrile] | 85%
7 | Cc1nc2c(CCC(F)(F)C(F)(F)F)nc(-c3nc(N)c4c(n3)NC(=O)C4(C)c3ccc(F)cn3)cn2n1 (stereo not shown) [Example 89B, 4-amino-5-(5-fluoropyridin-2-yl)-5-methyl-2-(2-methyl-8-(3,3,4,4,4-pentafluorobutyl)-[1,2,4]triazolo[1,5-a]pyrazin-6-yl)-5H-pyrrolo[2,3-d]pyrimidin-6(7H)-one] | 109%
8 | Cc1ccc(C2(C)C(=O)Nc3nc(-c4cn5ncnc5c(CCCC(F)(F)F)n4)nc(O)c32)nc1 (stereo not shown) [Example 149B, 4-hydroxy-5-methyl-5-(5-methylpyridin-2-yl)-2-(8-(4,4,4-trifluorobutyl)-[1,2,4]triazolo[1,5-a]pyrazin-6-yl)-5H-pyrrolo[2,3-d]pyrimidin-6(7H)-one] | 63%
9 | CCCc1nc(-c2nc(N)c3c(n2)NC(=O)C3(c2ccc(Cl)cn2)C2CC2)cn2ncnc12 (stereo not shown) [Example 57A, 4-amino-5-(5-chloropyridin-2-yl)-5-cyclopropyl-2-(8-propyl-[1,2,4]triazolo[1,5-a]pyrazin-6-yl)-5H-pyrrolo[2,3-d]pyrimidin-6(7H)-one] | 119%
10 | COc1cccc(Cc2nc(-c3nc(N)c4c(n3)NC(=O)[C@@]4(C)c3ccc(F)cc3)cn3ncnc23)c1 [Example 86B, (S)-4-amino-5-(4-fluorophenyl)-2-(8-(3-methoxybenzyl)-[1,2,4]triazolo[1,5-a]pyrazin-6-yl)-5-methyl-5H-pyrrolo[2,3-d]pyrimidin-6(7H)-one] | 126%
11 | Cc1nc2c(CCC(F)(F)C(F)(F)F)nc(-c3nc(O)c4c(n3)NC(=O)[C@@]4(C)c3ccc(F)cc3)cn2n1 [Example 133B, (S)-5-(4-fluorophenyl)-4-hydroxy-5-methyl-2-(2-methyl-8-(3,3,4,4,4-pentafluorobutyl)-[1,2,4]triazolo[1,5-a]pyrazin-6-yl)-5H-pyrrolo[2,3-d]pyrimidin-6(7H)-one] | 87%
12 | CCCc1nc(-c2nc(N)c3c(n2)NC(=O)C3(c2ccc(F)c(F)c2)C2CC2)cn2ncnc12 (stereo not shown) [Example 58A, 4-amino-5-cyclopropyl-5-(3,4-difluorophenyl)-2-(8-propyl-[1,2,4]triazolo[1,5-a]pyrazin-6-yl)-5H-pyrrolo[2,3-d]pyrimidin-6(7H)-one] | 169%
13 | CC1(c2ccc(Cl)c(F)c2)C(=O)Nc2nc(-c3cn4ncnc4c(CCC(F)(F)F)n3)nc(O)c21 (stereo not shown) [Example 153B, 5-(4-chloro-3-fluorophenyl)-4-hydroxy-5-methyl-2-(8-(3,3,3-trifluoropropyl)-[1,2,4]triazolo[1,5-a]pyrazin-6-yl)-5H-pyrrolo[2,3-d]pyrimidin-6(7H)-one] | 104%
14 | CC(F)(F)c1ccc(C2(C)C(=O)Nc3nc(-c4cn5ncnc5c(CCCC(F)(F)F)n4)nc(N)c32)cn1 (racemic) [Example 45B, 4-amino-5-(6-(1,1-difluoroethyl)pyridin-3-yl)-5-methyl-2-(8-(4,4,4-trifluorobutyl)-[1,2,4]triazolo[1,5-a]pyrazin-6-yl)-5H-pyrrolo[2,3-d]pyrimidin-6(7H)-one] | 156%
15 | Nc1nc(-c2cn3ncnc3c(CCCC(F)(F)F)n2)nc2c1C(c1ccc(Cl)cc1)(C1CC1)C(=O)N2 (stereo not shown) [Example 31B, 4-amino-5-(4-chlorophenyl)-5-cyclopropyl-2-(8-(4,4,4-trifluorobutyl)-[1,2,4]triazolo[1,5-a]pyrazin-6-yl)-5H-pyrrolo[2,3-d]pyrimidin-6(7H)-one] | 104%
16 | CC1(c2ccc(Cl)cc2)C(=O)Nc2nc(-c3cn4ncnc4c(CCC(F)(F)C(F)(F)F)n3)nc(N)c21 (stereo not shown) [Example 10A, 4-amino-5-(4-chlorophenyl)-5-methyl-2-(8-(3,3,4,4,4-pentafluorobutyl)-[1,2,4]triazolo[1,5-a]pyrazin-6-yl)-5H-pyrrolo[2,3-d]pyrimidin-6(7H)-one] | 137%
17 | Nc1nc(-c2cn3ncnc3c(CCCC(F)(F)F)n2)nc2c1C(c1ncc(C(F)(F)F)cn1)(C1CC1)C(=O)N2 (single isomer, unassigned) [Example 180B, 4-amino-5-cyclopropyl-2-(8-(4,4,4-trifluorobutyl)-[1,2,4]triazolo[1,5-a]pyrazin-6-yl)-5-(5-(trifluoromethyl)pyrimidin-2-yl)-5,7-dihydro-6H-pyrrolo[2,3-d]pyrimidin-6-one] | 97%
18 | Cc1cnc(C2(C3CC3)C(=O)Nc3nc(-c4cn5ncnc5c(CCC(F)(F)C(F)(F)F)n4)nc(N)c32)cn1 (racemic) [Example 21B, 4-amino-5-cyclopropyl-5-(5-methylpyrazin-2-yl)-2-(8-(3,3,4,4,4-pentafluorobutyl)-[1,2,4]triazolo[1,5-a]pyrazin-6-yl)-5H-pyrrolo[2,3-d]pyrimidin-6(7H)-one] | 99%
19 | CC1(c2ccc(Cl)cn2)C(=O)Nc2nc(-c3cn4ncnc4c(CCCC(F)(F)F)n3)nc(N)c21 (stereo not shown) [Example 26A, 4-amino-5-(5-chloropyridin-2-yl)-5-methyl-2-(8-(4,4,4-trifluorobutyl)-[1,2,4]triazolo[1,5-a]pyrazin-6-yl)-5H-pyrrolo[2,3-d]pyrimidin-6(7H)-one] | 162%
